Data as given in publication PMC4965148 (PLoS ONE, 2016).

Key:
[1] = target: Opiate Kappa (Homo sapiens, UniProt P41145); experiment: Selectivity panel, binding
[2] = target: Norepinephrine transporter (Homo sapiens, UniProt P23975); experiment: Selectivity panel, binding
[3] = target: MAO-A (Homo sapiens, UniProt P21397); experiment: Selectivity panel, enzyme; format: biochemical
[4] = target: T1, rat α4β2 nAChR (Rattus norvegicus, UniProt P09483+P12390); experiment: Ca2+ flux (FLIPR) agonist/antagonist assay; format: cell-based; conditions: FLIPR antagonist mode, EC90 ACh
T1 construct: expressed in transfected cells; host or cells: HEK293 (made by Bristol-Myers Squibb)

[5] = target: Dopamine transporter (Homo sapiens, UniProt Q01959); experiment: Selectivity panel, binding

Measured: IC50

Sequence of Opiate Kappa (P41145 whole entry): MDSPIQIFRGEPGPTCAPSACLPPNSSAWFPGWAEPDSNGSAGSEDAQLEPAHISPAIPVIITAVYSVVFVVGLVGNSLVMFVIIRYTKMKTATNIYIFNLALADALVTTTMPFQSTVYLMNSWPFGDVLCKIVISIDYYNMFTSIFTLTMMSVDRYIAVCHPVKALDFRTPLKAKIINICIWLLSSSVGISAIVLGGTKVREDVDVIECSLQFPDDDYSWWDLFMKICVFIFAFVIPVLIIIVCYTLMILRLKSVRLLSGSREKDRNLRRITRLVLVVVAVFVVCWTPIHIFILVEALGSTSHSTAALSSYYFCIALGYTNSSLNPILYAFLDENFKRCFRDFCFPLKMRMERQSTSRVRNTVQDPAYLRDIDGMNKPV
Sequence of Dopamine transporter (Q01959 whole entry): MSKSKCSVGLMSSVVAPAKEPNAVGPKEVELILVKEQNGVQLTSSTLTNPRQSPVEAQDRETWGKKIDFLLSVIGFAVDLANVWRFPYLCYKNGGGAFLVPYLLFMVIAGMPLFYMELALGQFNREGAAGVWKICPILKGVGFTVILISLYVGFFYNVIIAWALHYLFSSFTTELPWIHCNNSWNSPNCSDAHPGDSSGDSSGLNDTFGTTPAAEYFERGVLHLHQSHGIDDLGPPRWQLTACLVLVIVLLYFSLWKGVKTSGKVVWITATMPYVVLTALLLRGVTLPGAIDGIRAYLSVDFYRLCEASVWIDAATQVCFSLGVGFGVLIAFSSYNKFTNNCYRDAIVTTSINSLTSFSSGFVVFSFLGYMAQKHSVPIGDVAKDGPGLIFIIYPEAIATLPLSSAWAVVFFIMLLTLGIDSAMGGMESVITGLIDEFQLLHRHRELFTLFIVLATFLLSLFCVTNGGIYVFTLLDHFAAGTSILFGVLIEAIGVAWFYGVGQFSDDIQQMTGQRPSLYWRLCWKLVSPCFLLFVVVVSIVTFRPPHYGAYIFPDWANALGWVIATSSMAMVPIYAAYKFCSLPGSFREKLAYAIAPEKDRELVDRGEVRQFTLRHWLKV
Sequence of Norepinephrine transporter (P23975 whole entry): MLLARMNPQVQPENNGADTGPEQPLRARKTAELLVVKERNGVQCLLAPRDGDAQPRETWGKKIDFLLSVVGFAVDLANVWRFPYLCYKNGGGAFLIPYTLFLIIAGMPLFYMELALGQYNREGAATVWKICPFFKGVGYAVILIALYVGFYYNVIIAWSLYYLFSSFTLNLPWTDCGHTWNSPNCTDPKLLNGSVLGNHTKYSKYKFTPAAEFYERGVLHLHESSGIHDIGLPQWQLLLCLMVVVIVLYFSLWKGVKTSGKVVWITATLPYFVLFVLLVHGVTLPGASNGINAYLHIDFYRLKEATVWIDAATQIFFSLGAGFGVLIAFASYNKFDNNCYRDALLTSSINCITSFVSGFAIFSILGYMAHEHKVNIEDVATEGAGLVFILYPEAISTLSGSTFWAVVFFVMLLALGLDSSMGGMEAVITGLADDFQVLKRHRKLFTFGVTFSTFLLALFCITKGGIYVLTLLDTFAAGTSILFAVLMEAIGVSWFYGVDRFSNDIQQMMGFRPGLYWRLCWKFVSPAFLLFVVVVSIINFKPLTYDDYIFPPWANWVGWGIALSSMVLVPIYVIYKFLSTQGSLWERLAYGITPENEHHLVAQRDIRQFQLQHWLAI
T1 sequence (P09483 31-630): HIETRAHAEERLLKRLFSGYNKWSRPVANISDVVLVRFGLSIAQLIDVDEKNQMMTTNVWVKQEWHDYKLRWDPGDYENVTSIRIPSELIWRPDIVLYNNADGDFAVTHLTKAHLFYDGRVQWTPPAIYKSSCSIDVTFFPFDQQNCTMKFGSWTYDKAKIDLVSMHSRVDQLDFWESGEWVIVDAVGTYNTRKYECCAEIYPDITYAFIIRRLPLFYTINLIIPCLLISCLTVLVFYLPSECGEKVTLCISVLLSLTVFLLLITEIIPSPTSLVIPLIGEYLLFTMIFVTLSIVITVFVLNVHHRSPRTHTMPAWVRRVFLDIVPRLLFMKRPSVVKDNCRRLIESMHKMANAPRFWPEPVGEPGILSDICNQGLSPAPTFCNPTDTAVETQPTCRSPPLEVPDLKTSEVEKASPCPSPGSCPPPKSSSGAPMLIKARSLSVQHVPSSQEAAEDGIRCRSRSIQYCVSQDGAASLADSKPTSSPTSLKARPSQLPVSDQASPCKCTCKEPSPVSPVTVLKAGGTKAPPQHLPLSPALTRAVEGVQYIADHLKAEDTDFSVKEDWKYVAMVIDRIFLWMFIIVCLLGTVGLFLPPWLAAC
T1 sequence (P12390 25-500): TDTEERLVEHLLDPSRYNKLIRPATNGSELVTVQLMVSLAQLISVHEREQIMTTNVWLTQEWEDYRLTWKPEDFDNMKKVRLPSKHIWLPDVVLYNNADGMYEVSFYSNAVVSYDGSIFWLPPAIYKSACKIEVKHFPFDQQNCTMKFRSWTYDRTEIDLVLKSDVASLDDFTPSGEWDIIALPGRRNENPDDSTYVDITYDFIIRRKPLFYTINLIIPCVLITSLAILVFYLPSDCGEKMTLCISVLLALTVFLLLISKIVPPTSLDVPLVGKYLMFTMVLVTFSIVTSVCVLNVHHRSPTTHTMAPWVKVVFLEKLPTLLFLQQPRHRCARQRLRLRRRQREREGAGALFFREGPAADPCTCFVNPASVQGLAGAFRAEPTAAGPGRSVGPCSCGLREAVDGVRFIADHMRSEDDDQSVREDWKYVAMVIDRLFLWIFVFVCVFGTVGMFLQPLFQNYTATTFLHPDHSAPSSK
Sequence of MAO-A (P21397 whole entry): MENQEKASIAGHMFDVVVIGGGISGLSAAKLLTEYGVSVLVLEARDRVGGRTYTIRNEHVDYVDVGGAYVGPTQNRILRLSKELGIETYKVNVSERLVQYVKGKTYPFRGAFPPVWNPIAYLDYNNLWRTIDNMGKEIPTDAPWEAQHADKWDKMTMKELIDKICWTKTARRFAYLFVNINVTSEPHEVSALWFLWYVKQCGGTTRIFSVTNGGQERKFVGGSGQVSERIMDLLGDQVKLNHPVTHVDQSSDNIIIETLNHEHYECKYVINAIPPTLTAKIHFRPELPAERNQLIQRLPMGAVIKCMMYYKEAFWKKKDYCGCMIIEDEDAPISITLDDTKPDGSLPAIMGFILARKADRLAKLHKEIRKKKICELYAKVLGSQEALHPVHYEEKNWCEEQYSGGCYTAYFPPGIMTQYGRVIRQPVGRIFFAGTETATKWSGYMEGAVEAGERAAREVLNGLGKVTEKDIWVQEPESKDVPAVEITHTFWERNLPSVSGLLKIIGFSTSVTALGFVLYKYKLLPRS

c1cn(-c2cc(NC3=NC[C@@]4(CN5CCC4CC5)O3)ncn2)cn1 [BMS-933043, (2R)-N-(6-(1H-imidazol-1-yl)-4-pyrimidinyl)-4'H-spiro[4-azabicyclo[2.2.2]octane-2,5'-[1,3]oxazol]-2'-amine]
> 30 µM: all assays above
